Laboratory results reported in patent US12187742B2 (XRAD Therapeutics, Inc., priority 2018, dated 2025).
Counter-ions that a name gives are not always drawn.

Target: ATM (Homo sapiens (Human), UniProt Q13315)
Test: ATM in Cell Western Assay (pKAP1 in etoposide-treated MCF-7 cells)
Assay type: cell-based
Details: pKAP1 in etoposide-treated MCF-7 cells
Method in brief: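 After paraformaldehyde fixation and Triton X-100 permeabilization, immunostained plates were read by infrared scanning (ODYSSEY CLx). Compound was given as 10 doses, 3-fold dilutions from a 1 μM final top concentration.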

Chain of ATM (Q13315 whole entry): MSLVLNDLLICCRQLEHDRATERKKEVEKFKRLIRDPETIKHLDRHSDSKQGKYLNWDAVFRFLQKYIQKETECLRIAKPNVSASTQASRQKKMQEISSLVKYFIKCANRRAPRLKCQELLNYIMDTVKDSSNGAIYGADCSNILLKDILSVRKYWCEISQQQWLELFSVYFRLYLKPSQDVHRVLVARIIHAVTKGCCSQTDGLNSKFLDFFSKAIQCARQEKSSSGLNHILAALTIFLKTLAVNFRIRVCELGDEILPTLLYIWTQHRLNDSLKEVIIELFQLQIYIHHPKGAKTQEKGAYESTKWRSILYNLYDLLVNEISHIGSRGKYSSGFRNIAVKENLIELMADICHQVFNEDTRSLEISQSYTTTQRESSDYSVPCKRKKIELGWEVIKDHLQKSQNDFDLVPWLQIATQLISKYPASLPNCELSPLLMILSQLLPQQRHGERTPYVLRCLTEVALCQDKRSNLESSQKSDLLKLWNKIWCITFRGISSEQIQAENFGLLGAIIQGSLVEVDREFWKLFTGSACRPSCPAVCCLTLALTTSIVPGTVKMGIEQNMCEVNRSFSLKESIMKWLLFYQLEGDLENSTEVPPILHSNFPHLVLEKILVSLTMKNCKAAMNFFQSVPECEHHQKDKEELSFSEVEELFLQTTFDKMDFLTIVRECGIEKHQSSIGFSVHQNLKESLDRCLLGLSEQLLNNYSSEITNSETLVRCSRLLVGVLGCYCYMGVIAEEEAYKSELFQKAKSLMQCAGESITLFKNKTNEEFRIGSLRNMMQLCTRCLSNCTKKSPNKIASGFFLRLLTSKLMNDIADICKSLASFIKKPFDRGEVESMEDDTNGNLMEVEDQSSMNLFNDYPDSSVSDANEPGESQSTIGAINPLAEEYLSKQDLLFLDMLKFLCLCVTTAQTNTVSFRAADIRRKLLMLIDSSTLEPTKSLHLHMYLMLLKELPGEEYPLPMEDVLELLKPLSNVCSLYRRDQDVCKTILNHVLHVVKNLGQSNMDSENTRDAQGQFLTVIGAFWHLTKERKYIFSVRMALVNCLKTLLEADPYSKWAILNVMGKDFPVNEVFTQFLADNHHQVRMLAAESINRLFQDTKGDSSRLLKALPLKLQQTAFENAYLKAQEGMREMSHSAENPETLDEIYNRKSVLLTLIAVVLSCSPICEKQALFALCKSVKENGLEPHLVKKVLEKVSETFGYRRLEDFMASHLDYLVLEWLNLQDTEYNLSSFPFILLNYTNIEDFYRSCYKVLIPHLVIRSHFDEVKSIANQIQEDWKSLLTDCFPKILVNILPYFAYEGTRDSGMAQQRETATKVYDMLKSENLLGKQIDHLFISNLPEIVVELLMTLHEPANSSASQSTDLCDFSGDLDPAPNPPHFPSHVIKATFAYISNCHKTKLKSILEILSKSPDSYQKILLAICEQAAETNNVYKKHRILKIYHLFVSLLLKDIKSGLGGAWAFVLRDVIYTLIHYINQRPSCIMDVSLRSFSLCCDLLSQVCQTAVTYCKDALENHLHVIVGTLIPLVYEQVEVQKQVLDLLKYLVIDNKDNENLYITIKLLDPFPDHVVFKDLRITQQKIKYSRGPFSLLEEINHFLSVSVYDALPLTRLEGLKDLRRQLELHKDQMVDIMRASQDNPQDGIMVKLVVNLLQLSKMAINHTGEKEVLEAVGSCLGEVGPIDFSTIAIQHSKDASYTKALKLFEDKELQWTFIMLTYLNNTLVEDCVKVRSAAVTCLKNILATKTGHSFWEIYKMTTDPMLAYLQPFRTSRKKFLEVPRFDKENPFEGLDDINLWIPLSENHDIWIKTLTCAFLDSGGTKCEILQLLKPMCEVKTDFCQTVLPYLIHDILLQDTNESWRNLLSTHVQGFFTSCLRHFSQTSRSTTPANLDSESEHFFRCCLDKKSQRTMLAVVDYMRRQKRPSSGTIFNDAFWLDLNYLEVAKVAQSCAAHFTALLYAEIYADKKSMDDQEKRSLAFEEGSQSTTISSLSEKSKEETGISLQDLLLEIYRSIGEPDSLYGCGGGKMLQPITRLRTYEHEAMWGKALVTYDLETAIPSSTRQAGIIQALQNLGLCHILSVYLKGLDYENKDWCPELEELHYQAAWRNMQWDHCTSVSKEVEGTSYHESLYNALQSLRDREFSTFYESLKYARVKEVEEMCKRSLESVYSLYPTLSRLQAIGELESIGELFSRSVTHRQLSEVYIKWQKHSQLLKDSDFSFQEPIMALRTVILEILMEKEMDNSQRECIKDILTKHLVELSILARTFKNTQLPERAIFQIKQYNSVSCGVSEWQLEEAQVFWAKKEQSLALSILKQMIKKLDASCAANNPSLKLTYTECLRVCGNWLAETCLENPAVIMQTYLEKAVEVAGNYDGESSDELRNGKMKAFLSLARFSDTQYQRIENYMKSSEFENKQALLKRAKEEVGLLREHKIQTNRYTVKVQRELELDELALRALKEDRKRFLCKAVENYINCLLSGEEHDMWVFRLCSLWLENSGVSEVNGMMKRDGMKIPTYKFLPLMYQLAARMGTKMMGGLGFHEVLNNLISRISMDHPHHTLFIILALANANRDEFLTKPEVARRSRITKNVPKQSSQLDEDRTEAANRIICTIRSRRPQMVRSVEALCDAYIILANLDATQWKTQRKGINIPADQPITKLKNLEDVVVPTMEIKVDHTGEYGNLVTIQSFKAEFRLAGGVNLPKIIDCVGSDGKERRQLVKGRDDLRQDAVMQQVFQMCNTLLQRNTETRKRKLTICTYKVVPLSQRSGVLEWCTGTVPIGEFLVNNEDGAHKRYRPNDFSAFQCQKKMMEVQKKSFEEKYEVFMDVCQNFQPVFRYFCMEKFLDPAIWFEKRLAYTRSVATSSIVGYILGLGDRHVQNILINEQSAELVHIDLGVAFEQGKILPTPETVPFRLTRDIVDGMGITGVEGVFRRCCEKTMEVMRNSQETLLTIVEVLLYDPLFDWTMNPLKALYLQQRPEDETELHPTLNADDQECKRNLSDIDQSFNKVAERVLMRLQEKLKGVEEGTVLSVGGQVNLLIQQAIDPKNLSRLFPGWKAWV

Row | Compound | IC50
1 | CCC(CC)N1CC2(C1)C(=O)N(C)c1cnc3cc(F)c(-c4cnc(OCCNC(C)C)c(NS(C)(=O)=O)c4)cc3c12 [Example 490, N-(5-(7′-Fluoro-3′-methyl-2′-oxo-1-(pentan-3-yl)-2′,3′-dihydrospiro[azetidine-3,1′-pyrrolo[2,3-c]quinolin]-8′-yl)-2-(2-(isopropylamino)ethoxy)pyridin-3-yl)methanesulfonamide] | 0.001 to 0.1 µM
2 | CC(C)CN1CC2(C1)C(=O)N(C)c1cnc3cc(F)c(-c4cnc(OCCNC(C)C)c(NS(C)(=O)=O)c4)cc3c12 [Example 491, N-(5-(7′-Fluoro-1-isobutyl-3′-methyl-2′-oxo-2′,3′-dihydrospiro[azetidine-3,1′-pyrrolo[2,3-c]quinolin]-8′-yl)-2-(2-(isopropylamino)ethoxy)pyridin-3-yl)methanesulfonamide] | 0.001 to 0.1 µM
3 | CC(C)CCN1CC2(C1)C(=O)N(C)c1cnc3cc(F)c(-c4cnc(OCCNC(C)C)c(NS(C)(=O)=O)c4)cc3c12 [Example 492, N-(5-(7′-Fluoro-1-isopentyl-3′-methyl-2′-oxo-2′,3′-dihydrospiro[azetidine-3,1′-pyrrolo[2,3-c]quinolin]-8′-yl)-2-(2-(isopropylamino)ethoxy)pyridin-3-yl)methanesulfonamide] | > 0.1 µM
4 | CC(C)NCCOc1ncc(-c2cc3c4c(cnc3cc2F)N(C)C(=O)C42CN([C@@H](C)c3ccccc3)C2)cc1NS(C)(=O)=O [Example 493, (S)-N-(5-(7′-Fluoro-3′-methyl-2′-oxo-1-(1-phenylethyl)-2′,3′-dihydrospiro [azetidine-3,1′-pyrrolo[2,3-c]quinolin]-8′-yl)-2-(2-(isopropylamino)ethoxy)pyridin-3-yl)methanesulfonamide] | 0.001 to 0.1 µM
5 | CC(C)NCCOc1ncc(-c2cc3c4c(cnc3cc2F)N(C)C(=O)C42CN([C@H](C)c3ccccc3)C2)cc1NS(C)(=O)=O [Example 494] | > 0.1 µM
6 | CC(C)NCCOc1ncc(-c2cc3c4c(cnc3cc2F)N(C)C(=O)C42CN(Cc3ccccc3)C2)cc1NS(C)(=O)=O [Example 495, N-(5-(1-Benzyl-7-fluoro-3′-methyl-2′-oxo-2′,3′-dihydrospiro[azetidine-3,1′-pyrrolo[2,3-c]quinolin]-8′-yl)-2-(2-(isopropylamino)ethoxy)pyridin-3-yl)methanesulfonamide] | 0.001 to 0.1 µM
7 | CC(C)NCCOc1ncc(-c2cc3c4c(cnc3cc2F)N(C)C(=O)C42CN(C3CC3)C2)cc1NS(C)(=O)=O [Example 496, N-(5-(1-Cyclopropyl-7′-fluoro-3′-methyl-2′-oxo-2′,3′-dihydrospiro[azetidine-3,1′-pyrrolo[2,3-c]quinolin]-8′-yl)-2-(2-(isopropylamino)ethoxy)pyridin-3-yl)methanesulfonamide] | 0.001 to 0.1 µM
8 | CC(C)NCCOc1ncc(-c2cc3c4c(cnc3cc2F)N(C)C(=O)C42CN(C3CCCCC3)C2)cc1NS(C)(=O)=O [Example 499, N-(5-(1-Cyclohexyl-7′-fluoro-3′-methyl-2′-oxo-2′,3′-dihydrospiro[azetidine-3,1′-pyrrolo[2,3-c]quinolin]-8′-yl)-2-(2-(isopropylamino)ethoxy)pyridin-3-yl)methanesulfonamide] | 0.001 to 0.1 µM
9 | CC(C)NCCOc1ncc(-c2cc3c4c(cnc3cc2F)N(C)C(=O)C42CN(C3CCOCC3)C2)cc1NS(C)(=O)=O [Example 500, N-(5-(7′-Fluoro-3′-methyl-2′-oxo-1-(tetrahydro-2H-pyran-4-yl)-2′,3′-dihydrospiro[azetidine-3,1′-pyrrolo[2,3-c]quinolin]-8′-yl)-2-(2-(isopropylamino)ethoxy)pyridin-3-yl)methanesulfonamide hydrochloride] | 0.001 to 0.1 µM
10 | CC(C)NCCOc1ncc(-c2cc3c4c(cnc3cc2F)N(C)C(=O)C42CN(C3CCNCC3)C2)cc1NS(C)(=O)=O [Example 501, N-(5-(7′-Fluoro-3′-methyl-2′-oxo-1-(piperidin-4-yl)-2′,3′-dihydrospiro[azetidine-3,1′-pyrrolo[2,3-c]quinolin]-8′-yl)-2-(2-(isopropylamino)ethoxy)pyridin-3-yl)methanesulfonamide] | > 0.1 µM
11 | CC(C)NCCOc1ncc(-c2cc3c4c(cnc3cc2F)N(C)C(=O)C42CN(C3CCN(C)CC3)C2)cc1NS(C)(=O)=O [Example 502, N-(5-(7′-Fluoro-3′-methyl-1-(1-methylpiperidin-4-yl)-2′-oxo-2′,3′-dihydrospiro[azetidine-3,1′-pyrrolo[2,3-c]quinolin]-8′-yl)-2-(2-(isopropylamino)ethoxy)pyridin-3-yl)methanesulfonamide] | > 0.1 µM

The next lines start with the values.

Row | IC50 | Compound
12 | > 0.1 µM | CC(=O)N1CCC(N2CC3(C2)C(=O)N(C)c2cnc4cc(F)c(-c5cnc(OCCNC(C)C)c(NS(C)(=O)=O)c5)cc4c23)CC1 [Example 503, N-(5-(1-(1-Acetylpiperidin-4-yl)-7′-fluoro-3′-methyl-2′-oxo-2′,3′-dihydrospiro[azetidine-3,1′-pyrrolo[2,3-c]quinolin]-8′-yl)-2-(2-(isopropylamino)ethoxy)pyridin-3-yl)methanesulfonamide]
13 | > 0.1 µM | CC(C)NCCOc1ncc(-c2cc3c4c(cnc3cc2F)N(C)C(=O)C42CN([C@H]3CC[C@@H](O)CC3)C2)cc1NS(C)(=O)=O [Example 504, N-(5-(7′-Fluoro-1-(cis-4-hydroxycyclohexyl)-3′-methyl-2′-oxo-2′,3′-dihydrospiro[azetidine-3,1′-pyrrolo[2,3-c]quinolin]-8′-yl)-2-(2-(isopropylamino)ethoxy)pyridin-3-yl)methanesulfonamide]
14 | > 0.1 µM | CC(C)NCCOc1ncc(-c2cc3c4c(cnc3cc2F)N(C)C(=O)C42CN([C@H]3CC[C@H](O)CC3)C2)cc1NS(C)(=O)=O [Example 505, N-(5-(7′-Fluoro-1-(trans-4-hydroxycyclohexyl)-3′-methyl-2′-oxo-2′,3′-dihydrospiro[azetidine-3,1′-pyrrolo[2,3-c]quinolin]-8′-yl)-2-(2-(isopropylamino)ethoxy)pyridin-3-yl)methanesulfonamide]
15 | 0.001 to 0.1 µM | CC(C)NCCOc1ncc(-c2cc3c4c(cnc3cc2F)N(C)C(=O)C42CN(CCO)C2)cc1NS(C)(=O)=O [Example 506, N-(5-(7′-Fluoro-1-(2-hydroxyethyl)-3′-methyl-2′-oxo-2′,3′-dihydrospiro[azetidine-3,1′-pyrrolo[2,3-c]quinolin]-8′-yl)-2-(2-(isopropylamino)ethoxy)pyridin-3-yl)methanesulfonamide]
16 | 0.001 to 0.1 µM | COCCN1CC2(C1)C(=O)N(C)c1cnc3cc(F)c(-c4cnc(OCCNC(C)C)c(NS(C)(=O)=O)c4)cc3c12 [Example 507, N-(5-(7′-Fluoro-1-(2-methoxyethyl)-3 methyl-2′-oxo-2′,3′-dihydrospiro[azetidine-3,1′-pyrrolo[2,3-c]quinolin]-8′-yl)-2-(2-(isopropylamino)ethoxy)pyridin-3-yl)methanesulfonamide]
17 | 0.001 to 0.1 µM | CC(C)NCCOc1ncc(-c2cc3c4c(cnc3cc2F)N(C)C(=O)C42CN(CC(F)F)C2)cc1NS(C)(=O)=O [Example 508, N-(5-(1-(2,2-Difluoroethyl)-7′-fluoro-3′-methyl-2′-oxo-2′,3′-dihydrospiro[azetidine-3,1′-pyrrolo[2,3-c]quinolin]-8′-yl)-2-(2-(isopropylamino)ethoxy)pyridin-3-yl)methanesulfonamide]
18 | > 0.1 µM | CC(C)NCCOc1ncc(-c2cc3c4c(cnc3cc2F)N(C)C(=O)C42CN(C[C@@H](O)CO)C2)cc1NS(C)(=O)=O [Example 509, (R)-N-(5-(1-(2,3-Dihydroxypropyl)-7′-fluoro-3′-methyl-2′-oxo-2′,3′-dihydrospiro[azetidine-3,1′-pyrrolo[2,3-c]quinolin]-8′-yl)-2-(2-(isopropylamino)ethoxy)pyridin-3-yl)methanesulfonamide]
19 | > 0.1 µM | CC(C)NCCOc1ncc(-c2cc3c4c(cnc3cc2F)N(C)C(=O)C42CN(C[C@H](O)CO)C2)cc1NS(C)(=O)=O [Example 510, (S)-N-(5-(1-(2,3-Dihydroxypropyl)-7′-fluoro-3′-methyl-2′-oxo-2′,3′-dihydrospiro[azetidine-3,1′-pyrrolo[2,3-c]quinolin]-8′-yl)-2-(2-(isopropylamino)ethoxy)pyridin-3-yl)methanesulfonamide]
20 | > 0.1 µM | CC(=O)N1CC2(C1)C(=O)N(C)c1cnc3cc(F)c(-c4cnc(OCCNC(C)C)c(NS(C)(=O)=O)c4)cc3c12 [Example 511, N-(5-(1-Acetyl-7′-fluoro-3′-methyl-2′-oxo-2′,3′-dihydrospiro[azetidine-3,1′-pyrrolo[2,3-c]quinolin]-8′-yl)-2-(2-(isopropylamino)ethoxy)pyridin-3-yl)methanesulfonamide]
21 | > 0.1 µM | CC(C)NCCOc1ncc(-c2cc3c4c(cnc3cc2F)N(C)C(=O)C42CN(C(=O)C(C)C)C2)cc1NS(C)(=O)=O [Example 512, N-(5-(7′-Fluoro-1-isobutyryl-3′-methyl-2′-oxo-2′,3′-dihydrospiro[azetidine-3,1′-pyrrolo[2,3-c]quinolin]-8′-yl)-2-(2-(isopropylamino)ethoxy)pyridin-3-yl)methanesulfonamide]
22 | > 0.1 µM | COC(=O)N1CC2(C1)C(=O)N(C)c1cnc3cc(F)c(-c4cnc(OCCNC(C)C)c(NS(C)(=O)=O)c4)cc3c12 [Example 513, Methyl7′-fluoro-8′-(6-(2-(isopropylamino)ethoxy)-5-(methylsulfonamido)pyridin-3-yl)-3′-methyl-2′-oxo-2′,3′-dihydrospiro[azetidine-3,1′-pyrrolo[2,3-c]quinoline]-1-carboxylate]
23 | 0.001 to 0.1 µM | CC(C)NCCOc1ncc(-c2cc3c4c(cnc3cc2F)N(C)C(=O)C42CN(C(=O)OC(C)C)C2)cc1NS(C)(=O)=O [Example 514, Isopropyl 7′-fluoro-8′-(6-(2-(isopropylamino)ethoxy)-5-(methylsulfonamido)pyridin-3-yl)-3′-methyl-2′-oxo-2′,3′-dihydrospiro [azetidine-3,1′-pyrrolo[2,3-c]quinoline]-1-carboxylate]
24 | > 0.1 µM | CC(C)NCCOc1ncc(-c2cc3c4c(cnc3cc2F)N(C)C(=O)C42CN(S(=O)(=O)c3ccccc3)C2)cc1NS(C)(=O)=O [Example 515]
